Measured values as given in patent US20250074880A1, “NOVEL QUINOLINE DERIVATIVES AND USES THEREOF” (Istituto Europeo di Oncologia S.r.l., priority 2021, published 2025).
Read-outs that look alike come from different tables or passages of the source.

Tests used:
[1] = test system: MCF-7 primary breast adenocarcinoma cells; conditions: for cell proliferation (summary statement): combined experimental findings
Experimental: The MCF-7 cells were seeded in six-well plates (150,000 cells/well), grown overnight (37° C., 5% CO2) during which they attached to the bottom plate. The cells were then treated with compound D5 (RS5982) at concentrations of 10 μM, 20 μM or 50 μM. In the negative and positive control experiments, the cells were treated with 0.25% DMSO and 1 μM of Paclitaxel, respectively. After 24 h and 48 h of incubation, the cells were pulse-labeled (30 min) with 10 μM of bromodeozyuridine (BrdU; stains actively replicating DNA), collected, and fixed with 95% ethanol. Next, the cells were treated with a BrdU-specific antibody (1:5 dilution, BD Bioscience 347580) and incubated for 1 h at room temperature. The secondary antibody used was AF488 Donkey anti mouse (dilution 1:50), which was incubated for 1 h at room temperature. Total DNA was stained overnight (4° C.) with 2.5 μg/ml of propidium iodide. Fluorescence-activated cell sorting (FACS) analysis next allowed the quantification of cells occurring in various stages of the cell cycle. Specifically, measurements were performed using MACSquant FACS (Miltenyi Biotech), and analysed by FlowJo software (Ashland). The G2/M cell cycle stage was evaluated by DNA content and negativity for BrdU incorporation, to avoid an overlap between G2 and late S-phase. The number of G2/M phase cells were plotted relative to that measured in the presence of 0.25% DMSO at each time point (fold change values=1).

[2] = test system: MCF-7 primary breast adenocarcinoma cells; conditions: 10 μM, versus 0.1% DMSO, FIG. 7A-C
Experimental: The MCF-7 cells were seeded in six-well plates (300,000 cells/well), grown overnight (37° C., 5% CO2) during which they attached to the bottom plate. […] The cells were then fixated (10 min) with ice cold 100% methanol, washed twice with phosphate-buffered saline (PBS), and incubated with 3% (w/v) bovine serum albumin (BSA) in PBS containing 0.05% Tween 20 (room temperature, 1 h). Next, the cells were incubated (room temperature, 1 h) with human CREST patient serum (1:30 dilution, Antibodies Incorporated) to mark kinetochores, and mouse monoclonal anti-α-tubulin antibody (clone B512, 1:1000 dilution, Sigma) to mark microtubules, followed by incubation (room temperature, 30 min) with a secondary anti-mouse or anti-human IgG antibody that was conjugated either to chromophore AF647 (1:500, Invitrogen), AF488 (1:500 dilution, Invitrogen). DNA was stained with 0.1 μg/ml 4,6-diamidino-2-phenylindole (DAPI, Sigma Aldrich) and coverslips were mounted with Prolong Diamond Antifade (P36965, Invitrogen). To perform immunofluorescence imaging, the cells were captured on a confocal Nikon Eclipse Ti2-Spinning Disc V2 microscope (100× objective, NA=1.45, Nikon) equipped with an Andor iXon Ultra EMCCD camera. Images, acquired as Z-stacks (0.15 μm for each stack; about 80 stacks for mitotic cells) and analysed with ImageJ (Fiji) v1.53f51.

[3] = biological target: Ndc80 kinetochore subcomplex-MT binding (Homo sapiens, UniProt O14777); conditions: Ndc80 subcomplex:MTs 5 nM:10 nM; FIG. 3
Ndc80 kinetochore subcomplex-MT binding, sequence (O14777 whole entry): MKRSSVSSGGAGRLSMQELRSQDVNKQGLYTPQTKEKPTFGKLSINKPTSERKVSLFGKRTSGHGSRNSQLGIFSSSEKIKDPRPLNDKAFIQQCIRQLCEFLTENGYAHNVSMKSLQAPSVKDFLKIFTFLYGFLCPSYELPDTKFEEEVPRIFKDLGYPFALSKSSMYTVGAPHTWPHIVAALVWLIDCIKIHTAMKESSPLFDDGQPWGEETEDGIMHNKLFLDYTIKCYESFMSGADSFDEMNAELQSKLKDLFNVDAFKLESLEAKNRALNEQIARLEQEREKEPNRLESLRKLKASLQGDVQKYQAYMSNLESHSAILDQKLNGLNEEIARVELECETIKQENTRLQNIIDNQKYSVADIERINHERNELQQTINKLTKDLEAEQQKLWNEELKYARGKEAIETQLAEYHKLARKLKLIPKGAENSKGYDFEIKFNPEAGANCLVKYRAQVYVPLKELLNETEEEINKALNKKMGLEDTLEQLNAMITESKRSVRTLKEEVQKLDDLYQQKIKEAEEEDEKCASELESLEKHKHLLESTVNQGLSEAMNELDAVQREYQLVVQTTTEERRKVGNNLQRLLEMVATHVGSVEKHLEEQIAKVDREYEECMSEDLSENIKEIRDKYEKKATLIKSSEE
Ndc80 kinetochore subcomplex-MT binding, sequence (Q9BZD4 whole entry partner): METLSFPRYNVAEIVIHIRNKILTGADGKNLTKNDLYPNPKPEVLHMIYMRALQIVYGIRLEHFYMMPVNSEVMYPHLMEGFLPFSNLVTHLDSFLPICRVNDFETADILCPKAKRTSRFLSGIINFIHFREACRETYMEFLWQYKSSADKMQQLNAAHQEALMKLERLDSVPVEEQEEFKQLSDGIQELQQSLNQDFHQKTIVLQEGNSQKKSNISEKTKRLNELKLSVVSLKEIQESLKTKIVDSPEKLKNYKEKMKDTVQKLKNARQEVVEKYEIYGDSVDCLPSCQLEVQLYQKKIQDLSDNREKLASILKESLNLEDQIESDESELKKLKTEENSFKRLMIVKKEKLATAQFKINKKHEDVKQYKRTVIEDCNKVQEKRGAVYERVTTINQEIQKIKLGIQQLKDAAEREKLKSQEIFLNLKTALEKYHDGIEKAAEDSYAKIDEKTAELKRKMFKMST
Ndc80 kinetochore subcomplex-MT binding, sequence (Q8NBT2 whole entry partner): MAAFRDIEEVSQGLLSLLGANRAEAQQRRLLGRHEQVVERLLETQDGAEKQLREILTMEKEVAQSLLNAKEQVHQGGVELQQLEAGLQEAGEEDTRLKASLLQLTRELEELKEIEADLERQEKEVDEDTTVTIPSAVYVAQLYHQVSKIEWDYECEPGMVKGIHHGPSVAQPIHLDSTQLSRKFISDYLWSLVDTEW
Ndc80 kinetochore subcomplex-MT binding, sequence (Q9HBM1 whole entry partner): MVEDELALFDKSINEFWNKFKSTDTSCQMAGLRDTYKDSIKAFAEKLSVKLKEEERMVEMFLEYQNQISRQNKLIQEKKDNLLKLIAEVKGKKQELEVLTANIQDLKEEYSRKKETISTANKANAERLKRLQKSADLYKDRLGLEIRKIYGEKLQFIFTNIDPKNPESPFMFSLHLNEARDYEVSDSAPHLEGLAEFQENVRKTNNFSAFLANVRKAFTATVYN
From the text: Next, the Ndc80 kinetochore subcomplex was bound to AlphaScreen® acceptor beads. In parallel, biotinylated and taxol-stabilised MTs were bound to streptavidin-covered AlphaScreen® donor beads. […] A decrease in light emission is caused by abrogated Ndc80 kinetochore subcomplex-MT binding.
The recombinant His6-tagged Ndc80 kinetochore subcomplex was bound to AlphaScreen® (Amplified Luminescent Proximity Homogeneous Assay Screen) Ni^2+-acceptor beads. In parallel, biotinylated and taxol-stabilised MTs (Cytoskeleton) were bound to streptavidin-covered AlphaScreen® donor beads (Perkin Elmer). […] A decrease in or loss of light emission is caused by a reduced or total loss of Ndc80 kinetochore subcomplex-MT binding.

[4] = test system: MCF-7 primary breast adenocarcinoma cells
Experimental: The MCF-7 cells were seeded in six-well plates (150,000 cells/well), grown overnight (37° C., 5% CO2) during which they attached to the bottom plate. The cells were then treated with compound D5 (RS5982) or compound RS6008 at concentrations of 10 μM. 20 μM or 50 μM. In the negative and positive control experiments, the cells were treated with 0.25% DMSO and 1 μM of Paclitaxel, respectively. […] Finally, for each time point, the viable cell counts were plotted relatively to the number of viable cells measured in the presence of 0.25% DMSO.

| inhibition in the biochemical AlphaScreen binding assay [3] [%] | SMILES | cell proliferation (summary statement) [1] | anomalous kinetochore activity (unbound sister chromatids, lagging chromosomes) compared to control cells [2] | cell viability ([4]; 10, 20 or 50 μM, 24, 48, 72 h, relative to 0.25% DMSO, FIG. 4) | arrest at mitotic entry (G2/M phase) ([1]; 10, 20 or 50 μM, 24 and 48 h, relative to 0.25% DMSO, FIG. 5) | cell viability ([4]; 50 μM, FIG. 6) |
| --- | --- | --- | --- | --- | --- | --- |
| – | Cc1ccc(-c2cc(C(=O)Nc3ccc(C(F)(F)F)cc3C(F)(F)F)c3ccccc3n2)o1 [RS6648, N-(2,4-bis(Trifluoromethyl)phenyl)-2-(5-methylfuran-2-yl) quinoline-4-carboxamide] | delayed cell proliferation | increase in anomalous kinetochore activity | – | – | – |
| 59.93 | Cc1ccc(NC(=O)c2cc(-c3ccc(C)o3)nc3ccccc23)c(C)c1 [D5, N-(2,4-Dimethylphenyl)-2-(5-methylfuran-2-yl) quinoline-4-carboxamide] | delayed cell proliferation | increase in anomalous kinetochore activity | dose (D5)-dependent decrease in cell viability | enhanced arrest at mitotic entry (G2/M phase) | – |
| – | Cc1ccc(NC(=O)c2cc(-c3ccco3)nc3ccccc23)c(C)c1 [RS6008, N-(2,4-Dimethylphenyl)-2-(furan-2-yl) quinoline-4-carboxamide] | delayed cell proliferation | – | – | – | strong decrease in cell viability |
